Source: patent US10016438B2, “Bicyclic heterocycles as FGFR4 inhibitors” (Incyte Corporation, priority 2015, dated 2018)

Biological target: FGFR4 (Homo sapiens (Human), UniProt P22455)
Experiment: FGFR Enzymatic Assay (FRET peptide phosphorylation), FGFR4
Settings: IC50 ratio showing FGFR4 selectivity
[1] = pre-incubated for 5 to 10 minutes

FGFR4, sequence (P22455 22-802): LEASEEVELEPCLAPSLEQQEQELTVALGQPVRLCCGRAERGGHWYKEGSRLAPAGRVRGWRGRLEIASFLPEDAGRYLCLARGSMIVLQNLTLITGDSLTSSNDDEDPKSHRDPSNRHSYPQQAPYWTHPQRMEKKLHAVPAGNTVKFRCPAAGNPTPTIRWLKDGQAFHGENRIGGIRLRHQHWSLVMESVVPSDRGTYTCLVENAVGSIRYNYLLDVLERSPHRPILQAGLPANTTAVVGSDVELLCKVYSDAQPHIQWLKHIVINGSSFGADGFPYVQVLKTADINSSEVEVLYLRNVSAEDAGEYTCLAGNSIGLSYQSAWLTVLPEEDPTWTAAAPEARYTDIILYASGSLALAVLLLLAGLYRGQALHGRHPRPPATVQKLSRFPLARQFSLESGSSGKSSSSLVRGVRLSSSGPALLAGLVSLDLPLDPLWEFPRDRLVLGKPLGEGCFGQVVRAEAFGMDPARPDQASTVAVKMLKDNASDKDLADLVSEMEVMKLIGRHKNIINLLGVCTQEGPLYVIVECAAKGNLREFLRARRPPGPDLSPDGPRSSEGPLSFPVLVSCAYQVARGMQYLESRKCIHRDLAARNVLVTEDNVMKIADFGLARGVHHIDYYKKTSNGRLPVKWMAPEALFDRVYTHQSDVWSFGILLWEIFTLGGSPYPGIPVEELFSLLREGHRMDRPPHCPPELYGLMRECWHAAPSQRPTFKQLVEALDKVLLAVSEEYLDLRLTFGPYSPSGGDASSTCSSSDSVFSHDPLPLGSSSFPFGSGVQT
From the text: The enzymes were purchased from Millipore or Invitrogen.
GraphPad prism3 was used to analyze the data. The IC50 values were derived by fitting the data to the equation for a sigmoidal dose-response with a variable slope. Y=Bottom+(Top−Bottom)/(1+10^((Log IC50−X)*HillSlope)) where X is the logarithm of concentration and Y is the response.

FGFR1/FGFR4 [1] | FGFR2/FGFR4 [1] | FGFR3/FGFR4 [1] | FGFR1/FGFR4 (pre-incubated for 4 hours) | FGFR2/FGFR4 (pre-incubated for 4 hours) | FGFR3/FGFR4 (pre-incubated for 4 hours) | Structure (SMILES)
– | – | – | >100 | >100 | >100 | C=CC(=O)Nc1cn[nH]c1-c1cc2c(cn1)CN(c1c(F)c(OC)cc(OC)c1F)C(=O)C21CC1 [Example 14, N-(5-(2′-(2,6-difluoro-3,5-dimethoxyphenyl)-3′-oxo-2′,3′-dihydro-1′H-spiro[cyclopropane-1,4′-[2,7]naphthyridine]-6′-yl)-1H-pyrazol-4-yl)acrylamide]
– | – | – | >100 | >100 | >100 | C=CC(=O)Nc1cnn(CCOC)c1-c1cc2c(cn1)CN(c1c(F)c(OC)cc(OC)c1F)C(=O)C21CC1 [Example 15, N-(5-(2′-(2,6-difluoro-3,5-dimethoxyphenyl)-3′-oxo-2′,3′-dihydro-1′H-spiro[cyclopropane-1,4′-[2,7]naphthyridine]-6′-yl)-1-(2-methoxyethyl)-1H-pyrazol-4-yl)acrylamide]
– | – | – | >100 | >100 | >100 | C=CC(=O)Nc1cnn(CCOCC)c1-c1cc2c(cn1)CN(c1c(F)c(OC)cc(OC)c1F)C(=O)C21CC1 [Example 16, N-(5-(2′-(2,6-difluoro-3,5-dimethoxyphenyl)-3′-oxo-2′,3′-dihydro-1′H-spiro[cyclopropane-1,4′-[2,7]naphthyridine]-6′-yl)-1-(2-ethoxyethyl)-1H-pyrazol-4-yl)acrylamide]
– | – | – | >100 | >100 | >100 | C=CC(=O)Nc1cnn(CCO)c1-c1cc2c(cn1)CN(c1c(F)c(OC)cc(OC)c1F)C(=O)C21CC1 [Example 17, N-(5-(2′-(2,6-difluoro-3,5-dimethoxyphenyl)-3′-oxo-2′,3′-dihydro-1′H-spiro[cyclopropane-1,4′-[2,7]naphthyridine]-6′-yl)-1-(2-hydroxyethyl)-1H-pyrazol-4-yl)acrylamide]
– | – | – | >100 | >100 | >100 | C=CC(=O)Nc1cnn(CCN2CCOCC2)c1-c1cc2c(cn1)CN(c1c(F)c(OC)cc(OC)c1F)C(=O)C21CC1 [Example 19, N-(5-(2′-(2,6-difluoro-3,5-dimethoxyphenyl)-3′-oxo-2′,3′-dihydro-1′H-spiro[cyclopropane-1,4′-[2,7]naphthyridine]-6′-yl)-1-(2-morpholinoethyl)-1H-pyrazol-4-yl)acrylamide]

Second part, the compound before the results:

Structure (SMILES) | FGFR1/FGFR4 [1] | FGFR2/FGFR4 [1] | FGFR3/FGFR4 [1] | FGFR1/FGFR4 (pre-incubated for 4 hours) | FGFR2/FGFR4 (pre-incubated for 4 hours) | FGFR3/FGFR4 (pre-incubated for 4 hours)
C=CC(=O)Nc1ccc(C)c(-c2cc3c(cn2)CN(c2c(F)c(OC)cc(OC)c2F)C(=O)C32CC2)c1 [Example 2, N-(3-(2′-(2,6-difluoro-3,5-dimethoxyphenyl)-3′-oxo-2′,3′-dihydro-1′H-spiro[cyclopropane-1,4′-[2,7]naphthyridine]-6′-yl)-4-methylphenyl)acrylamide] | >100 | >100 | >100 | >100 | >100 | >100
C=CC(=O)Nc1ccc(C#N)c(-c2cc3c(cn2)CN(c2c(F)c(OC)cc(OC)c2F)C(=O)C32CC2)c1 [Example 5, N-(4-cyano-3-(2′-(2,6-difluoro-3,5-dimethoxyphenyl)-3′-oxo-2′,3′-dihydro-1′H-spiro[cyclopropane-1,4′-[2,7]naphthyridine]-6′-yl)phenyl)acrylamide] | >100 | >100 | >100 | >100 | >100 | >100
C=CC(=O)Nc1cc(-c2cc3c(cn2)CN(c2c(F)c(OC)cc(OC)c2F)C(=O)C32CC2)c(C)cc1F [Example 6, N-(5-(2′-(2,6-difluoro-3,5-dimethoxyphenyl)-3′-oxo-2′,3′-dihydro-1′H-spiro[cyclopropane-1,4′-[2,7]naphthyridine]-6′-yl)-2-fluoro-4-methylphenyl)acrylamide] | >100 | >100 | >100 | >100 | >100 | >100
C=CC(=O)Nc1cnc(C)c(-c2cc3c(cn2)CN(c2c(F)c(OC)cc(OC)c2F)C(=O)C32CC2)c1 [Example 7, N-(5-(2′-(2,6-difluoro-3,5-dimethoxyphenyl)-3′-oxo-2′,3′-dihydro-1′H-spiro[cyclopropane-1,4′-[2,7]naphthyridine]-6′-yl)-6-methylpyridin-3-yl)acrylamide] | >100 | >100 | >100 | >100 | >100 | >100
C=CC(=O)N1CCCC(c2cc3c(cn2)CN(c2c(F)c(OC)cc(OC)c2F)C(=O)C32CC2)C1 (stereo not drawn) [Example 8, 6′-(1-acryloylpiperidin-3-yl)-2′-(2,6-difluoro-3,5-dimethoxyphenyl)-1′H-spiro[cyclopropane-1,4′-[2,7]naphthyridin]-3′(2′H)-one] | >5 | >1 | >1 | >10 | >2 | >2
C=CC(=O)Nc1cc(-c2cc3c(cn2)CN(c2c(F)c(OC)cc(OC)c2F)C(=O)C32CC2)cc(N2CCOCC2)c1 [Example 10, N-{3-[2′-(2,6-difluoro-3,5-dimethoxyphenyl)-3′-oxo-2′,3′-dihydro-1′H-spiro[cyclopropane-1,4′-[2,7]naphthyridin]-6′-yl]-5-morpholin-4-ylphenyl}acrylamide] | >100 | >100 | >100 | >100 | >100 | >100
C=CC(=O)Nc1cc(CN2CCOCC2)cc(-c2cc3c(cn2)CN(c2c(F)c(OC)cc(OC)c2F)C(=O)C32CC2)c1 [Example 11, N-[3-[2′-(2,6-difluoro-3,5-dimethoxyphenyl)-3′-oxo-2′,3′-dihydro-1′H-spiro[cyclopropane-1,4′-[2,7]naphthyridin]-6′-yl]-5-(morpholin-4-ylmethyl)phenyl]acrylamide] | >100 | >100 | >100 | >100 | >100 | >100
C=CC(=O)Nc1cc(-c2cc3c(cn2)CN(c2c(F)c(OC)cc(OC)c2F)C(=O)C32CC2)ccc1CN1CCOCC1 [Example 12, N-(5-(2′-(2,6-difluoro-3,5-dimethoxyphenyl)-3′-oxo-2′,3′-dihydro-1′H-spiro[cyclopropane-1,4′-[2,7]naphthyridine]-6′-yl)-2-(morpholinomethyl)phenyl)acrylamide] | >10 | >1 | >1 | >100 | >25 | >10
C=CC(=O)Nc1cnn(C2CCOCC2)c1-c1cc2c(cn1)CN(c1c(F)c(OC)cc(OC)c1F)C(=O)C21CC1 [Example 18, N-(5-(2′-(2,6-difluoro-3,5-dimethoxyphenyl)-3′-oxo-2′,3′-dihydro-1′H-spiro[cyclopropane-1,4′-[2,7]naphthyridine]-6′-yl)-1-(tetrahydro-2H-pyran-4-yl)-1H-pyrazol-4-yl)acrylamide] | – | – | – | >100 | >50 | >100
